Among the data in ChEMBL document CHEMBL4196190, “Tetrahydrobenzofuran-6(2 H)-one Neolignans from Ocotea heterochroma: Their Platelet Activating Factor (PAF) Antagonistic Activity and in Silico Insights into the PAF Receptor Binding Mode” (J Nat Prod, 2018) are IC50 values, retold here.

This experiment can be described thus: Antagonist activity at rabbit PAF receptor assessed as inhibition of PAF-induced platelet aggregation incubated for 5 mins followed by PAF addition. To be noted: Oryctolagus cuniculus.
As a reminder, the IC50 is the concentration that gives 50% inhibition. Consider `C=CC[C@H]1C[C@]2(OC)C(=C(OC)C1=O)O[C@@H](c1cc(OC)c(OC)c(OC)c1)[C@@H]2C`, for which the half-maximal inhibitory concentration (IC50) was 230 nM.

Regarding `C=CC[C@H]1C[C@]2(OC)C(=C(OC)C1=O)O[C@@H](c1cc(OC)c3c(c1)OCO3)[C@@H]2C`, the half-inhibitory concentration (IC50) came out at 390 nM.

Regarding `C=CCC1=C[C@]2(OC)[C@H](C)[C@@H](c3cc(OC)c4c(c3)OCO4)[C@](OC)(C1=O)[C@H]2O` [CINERIN C], the IC50 was determined as 1090 nM.

Take `C[C@@H]1C(=O)O[C@H]2[C@H](O)[C@@]34[C@H]5C[C@@H](C(C)(C)C)[C@]36[C@@H](OC(=O)[C@@H]6O)O[C@@]4(C(=O)O5)[C@@]12O` [GINKOLIDE B]: the half-maximal inhibitory concentration (IC50) worked out at 930 nM.

In the case of `C=CCC1=C[C@@]2(OC)C(=CC1=O)O[C@H](c1ccc(OC)c(OC)c1)[C@H]2C` [KADSURENONE], the IC50 was found to be 150 nM.
